Measured values from patent US20250011311A1, “AMIDO HETEROAROMATIC COMPOUNDS” (AstraZeneca AB, priority 2022, published 2025).
pIC50: −log10 of the molar value.

What was measured:
[1] = target: recombinant 17bHSD13 (N2-K300) (Homo sapiens (Human), UniProt Q7Z5P4); test: In Vitro 17bHSD13 Enzyme Assay; format: biochemical; details: 80 nM 17bHSD13, 0.5 mM NAD, 20 μM Estradiol, 2.5 h; estradiol to estrone by LC-MS/MS
Method in brief: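 Human 17bHSD13 (N2-K300, 80 nM) with 0.5 mM NAD, 20 μM estradiol and varied compound in 50 mM Tris-Cl pH 7.4, 5 mM EDTA, 0.01% DDM. Estrone/(estrone+estradiol) ratio read by LC-MS/MS (APCI, positive MRM). Inhibition normalised to DMSO and a known-inhibitor control; IC50 from curve fit.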

human hepatocytes = test: Assay A: Metabolic Stability in Human Hepatocytes; format: in vitro ADME; details: cryopreserved human hepatocytes, 10^6 viable cells/mL, 1 μM compound, 37° C.
Method in brief: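 Cryopreserved hepatocytes (10^6 viable cells/mL) at 37° C with 1 μM test compound, sampled 0.5–120 min and quenched in MeCN. Parent measured by LC-MS/MS; CLint (μL/min/10^6 cells) from the slope of ln(parent concentration) vs time.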

[2] = target: recombinant 17bHSD4 (M1-N311) (Homo sapiens (Human), UniProt P51659); test: In Vitro 17bHSD4 Enzyme Assay; format: biochemical; details: 40 nM 17bHSD4, 0.125 mM NAD, 15 μM Estradiol, 1.5 h; NADH fluorescence; read-out: 17HSD17b4 Enzyme assay IC50
recombinant 17bHSD4 (M1-N311), sequence (P51659 1-311): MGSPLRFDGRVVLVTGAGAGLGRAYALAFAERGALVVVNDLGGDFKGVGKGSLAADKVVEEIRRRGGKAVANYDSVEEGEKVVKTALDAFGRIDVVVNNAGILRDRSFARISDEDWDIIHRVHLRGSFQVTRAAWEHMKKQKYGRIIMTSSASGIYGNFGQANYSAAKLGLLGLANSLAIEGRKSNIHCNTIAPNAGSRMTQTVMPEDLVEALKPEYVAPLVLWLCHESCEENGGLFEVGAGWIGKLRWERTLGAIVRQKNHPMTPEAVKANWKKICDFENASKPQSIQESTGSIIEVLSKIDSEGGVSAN

recombinant 17bHSD13 (N2-K300), sequence (Q7Z5P4 2-300): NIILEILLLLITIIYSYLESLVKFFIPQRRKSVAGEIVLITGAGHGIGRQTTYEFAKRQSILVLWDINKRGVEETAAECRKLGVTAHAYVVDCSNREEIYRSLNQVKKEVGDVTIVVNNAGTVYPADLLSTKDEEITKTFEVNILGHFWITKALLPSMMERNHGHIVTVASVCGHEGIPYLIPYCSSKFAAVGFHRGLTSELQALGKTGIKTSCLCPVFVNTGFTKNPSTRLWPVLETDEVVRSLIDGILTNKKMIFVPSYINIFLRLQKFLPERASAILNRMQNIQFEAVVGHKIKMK

Row | SMILES | pIC50 [1] | pIC50 [2] | Assay A: Human Heps Met Clint GMean CLint (μl/min/1E6) (human hepatocytes)
1 | CC[C@H]1CN(C(=O)c2noc(-c3cc(F)c(F)c(O)c3F)n2)C[C@@H](C)O1 (racemic) [Example 121, rac-((2R,6S)-2-Ethyl-6-methylmorpholino)(5-(2,4,5-trifluoro-3-hydroxyphenyl)-1,2,4-oxadiazol-3-yl)methanone] | 6.89 | < 4.30 | 6.8
2 | C[C@@H]1CN(C(=O)c2noc(-c3cc(F)c(F)c(O)c3F)n2)C[C@@H](C)O1 [Example 88, ((2R,6R)-2,6-Dimethylmorpholino)(5-(2,4,5-trifluoro-3-hydroxyphenyl)-1,2,4-oxadiazol-3-yl)methanone] | 6.33 | 4.44 | 3.6
3 | O=C(c1noc(-c2cc(C(F)(F)F)[nH]c(=O)c2)n1)N1CCC(c2ccccc2)C1 (stereo not drawn) [Example 9, 4-(3-(3-Phenylpyrrolidine-1-carbonyl)-1,2,4-oxadiazol-5-yl)-6-(trifluoromethyl)pyridin-2(1H)-one] | 6.37 | < 4.30 | 262.2
4 | N#Cc1c(C(=O)N2CCN(CCCOc3ccc(F)cc3)CC2)noc1-c1cc(F)c(F)c(O)c1F [Example 14, 3-(4-(3-(4-Fluorophenoxy)propyl)piperazine-1-carbonyl)-5-(2,4,5-trifluoro-3-hydroxyphenyl)isoxazole-4-carbonitrile] | 6.90 | 4.38 | 14.3
5 | O=C(c1noc(-c2cc(F)c(F)c(O)c2F)n1)N1CCO[C@@H]2CCC[C@@H]21 [Example 113, ((4aS,7aR)-Hexahydrocyclopenta[b][1,4]oxazin-4(4aH)-yl)(5-(2,4,5-trifluoro-3-hydroxyphenyl)-1,2,4-oxadiazol-3-yl)methanone] | 6.68 | 4.34 | 7.3
6 | CC(C)CC1CN(C(=O)c2noc(-c3cc(F)c(F)c(O)c3F)n2)CCO1 (stereo not drawn) [Example 47, (2-Isobutylmorpholino)(5-(2,4,5-trifluoro-3-hydroxyphenyl)-1,2,4-oxadiazol-3-yl)methanone] | 6.74 | 4.32 | 17.4
7 | C[C@@H]1CN(C(=O)c2cnc(-c3cc(F)c(F)c(O)c3F)s2)C[C@H](C)O1 [Example 120, ((2R,6S)-2,6-Dimethylmorpholino)(2-(2,4,5-trifluoro-3-hydroxyphenyl)thiazol-5-yl)methanone] | 7.36 | < 4.30 | 13.3
8 | C[C@@H]1CN(C(=O)c2noc(-c3cc(F)c(F)c(O)c3F)n2)C[C@H](C)O1 [Example 87, ((2R,6S)-2,6-Dimethylmorpholino)(5-(2,4,5-trifluoro-3-hydroxyphenyl)-1,2,4-oxadiazol-3-yl)methanone] | 6.55 | < 3.70 | 2.7
9 | C[C@@H]1CN(C(=O)c2noc(-c3cc(F)c(F)c(O)c3F)c2C#N)C[C@H](C)O1 [Example 22, 3-((2R,6S)-2,6-Dimethylmorpholine-4-carbonyl)-5-(2,4,5-trifluoro-3-hydroxyphenyl)isoxazole-4-carbonitrile] | 6.27 | < 4.30 | 6.3
10 | O=C(c1noc(-c2cc(F)c(F)c(O)c2F)n1)N1CCOC2(CC2)C1 [Example 118, (4-Oxa-7-azaspiro[2.5]octan-7-yl)(5-(2,4,5-trifluoro-3-hydroxyphenyl)-1,2,4-oxadiazol-3-yl)methanone] | 5.97 | < 4.30 | 4.6
11 | CC1(C)CN(C(=O)c2noc(-c3cc(F)c(F)c(O)c3F)n2)CC(C)(C)O1 [Example 32, (2,2,6,6-Tetramethylmorpholino)(5-(2,4,5-trifluoro-3-hydroxyphenyl)-1,2,4-oxadiazol-3-yl)methanone] | 6.80 | < 4.30 | 4.1
12 | C[C@@H]1CN(C(=O)c2noc(-c3cc(F)c(F)c(O)c3F)n2)[C@H](C)CO1 [Example 50, ((2R,5R)-2,5-Dimethylmorpholino)(5-(2,4,5-trifluoro-3-hydroxyphenyl)-1,2,4-oxadiazol-3-yl)methanone] | 6.30 | < 4.30 | 4.3
13 | N#Cc1ccc2c(c1)CCN(C(=O)c1noc(-c3cc(F)c(F)c(O)c3F)n1)C2 [Example 31, 2-(5-(2,4,5-Trifluoro-3-hydroxyphenyl)-1,2,4-oxadiazole-3-carbonyl)-1,2,3,4-tetrahydroisoquinoline-6-carbonitrile] | 6.78 | 4.94 | 12.6
14 | C[C@@H]1CN(C(=O)c2noc(-c3cc(F)c(F)c(O)c3F)n2)C[C@H](C)N1 [Example 119, ((3R,5S)-3,5-Dimethylpiperazin-1-yl)(5-(2,4,5-trifluoro-3-hydroxyphenyl)-1,2,4-oxadiazol-3-yl)methanone] | 5.76 | < 4.30 | 1.0
15 | CC1CN(C(=O)c2noc(-c3cc(F)c(F)c(O)c3F)n2)CC(C)(C)O1 (stereo not drawn) [Example 117, (5-(2,4,5-Trifluoro-3-hydroxyphenyl)-1,2,4-oxadiazol-3-yl)(2,2,6-trimethylmorpholino)methanone] | 6.63 | 4.40 | 4.2

Continued by rising pIC50 [1], values first:

Row | pIC50 [1] | pIC50 [2] | SMILES | Assay A: Human Heps Met Clint GMean CLint (μl/min/1E6) (human hepatocytes)
16 | 6.94 | 4.38 | O=C(Nc1ccnn1C1CCCCC1)c1cc(-c2ccc(F)c(O)c2)on1 [Example 99, N-(1-Cyclohexyl-1H-pyrazol-5-yl)-5-(4-fluoro-3-hydroxyphenyl)isoxazole-3-carboxamide] | >300
17 | 7.07 | < 4.30 | CC(C)[C@H]1CN(C(=O)c2noc(-c3cc(F)c(F)c(O)c3F)n2)C[C@@H](C)O1 (racemic) [Example 122, rac-((2R,6S)-2-isopropyl-6-methylmorpholino)(5-(2,4,5-trifluoro-3-hydroxyphenyl)-1,2,4-oxadiazol-3-yl)methanone] | 8.8
18 | 7.10 | 4.75 | N#Cc1c(C(=O)N2Cc3ccc(F)cc3C2)noc1-c1cc(F)c(F)c(O)c1F [Example 18, 3-(5-Fluoroisoindoline-2-carbonyl)-5-(2,4,5-trifluoro-3-hydroxyphenyl)isoxazole-4-carbonitrile] | 17.2
19 | 7.20 | 4.65 | O=C(c1noc(-c2cc(F)c(F)c(O)c2F)n1)N1CC[C@H](Oc2ccccc2)C1 [Example 93, (S)-(3-Phenoxypyrrolidin-1-yl)(5-(2,4,5-trifluoro-3-hydroxyphenyl)-1,2,4-oxadiazol-3-yl)methanone] | 15.6
20 | 7.20 | 5.02 | O=C(c1noc(-c2cc(F)c(F)c(O)c2F)n1)N1CC[C@@H](Oc2ccccc2)C1 [Example 98, (R)-(3-Phenoxypyrrolidin-1-yl)(5-(2,4,5-trifluoro-3-hydroxyphenyl)-1,2,4-oxadiazol-3-yl)methanone] | 26.7
21 | 7.21 | 4.76 | N#Cc1cccc2c1CCN(C(=O)c1noc(-c3c(F)c(O)c(F)c(F)c3Br)n1)C2 [Example 30, 2-(5-(2-Bromo-3,4,6-trifluoro-5-hydroxyphenyl)-1,2,4-oxadiazole-3-carbonyl)-1,2,3,4-tetrahydroisoquinoline-5-carbonitrile] | 15.6
22 | 7.24 | 4.52 | C[C@@H]1C[C@H](C)CN(C(=O)c2noc(-c3cc(F)c(F)c(O)c3F)n2)C1 [Example 37, ((3R,5S)-3,5-Dimethylpiperidin-1-yl)(5-(2,4,5-trifluoro-3-hydroxyphenyl)-1,2,4-oxadiazol-3-yl)methanone] | 6.7
23 | 7.32 | 4.63 | O=C(c1noc(-c2cc(F)c(F)c(O)c2F)n1)N1CCCC(OCc2ccccc2)C1 (stereo not drawn) [Example 94, (3-(Benzyloxy)piperidin-1-yl)(5-(2,4,5-trifluoro-3-hydroxyphenyl)-1,2,4-oxadiazol-3-yl)methanone] | 17.3
24 | 7.34 | < 4.30 | O=C(c1noc(-c2cc(F)c(F)c(O)c2F)n1)N1CCO[C@@H]2CCC[C@H]21 [Example 114, ((4aR,7aR)-Hexahydrocyclopenta[b][1,4]oxazin-4(4aH)-yl)(5-(2,4,5-trifluoro-3-hydroxyphenyl)-1,2,4-oxadiazol-3-yl)methanone] | 6.4
25 | 7.44 | 5.21 | COc1ccccc1C1CCN(C(=O)c2noc(-c3cc(F)c(F)c(O)c3F)n2)C1 (stereo not drawn) [Example 4, (3-(2-Methoxyphenyl)pyrrolidin-1-yl)(5-(2,4,5-trifluoro-3-hydroxyphenyl)-1,2,4-oxadiazol-3-yl)methanone] | 47.4
